Results taken from patent publication US7166726B2, “Aryl substituted 3,4-dihydroanthracene derivatives having retinoid antagonist or retinoid inverse agonist type biological activity” (Allergan, Inc., priority 1996, dated 2007).

Tests used:
RARβ = target: T1, RARβ (Homo sapiens, UniProt P10826); test: Ligand binding assay, RARβ
T1 sequence (P10826 1-455): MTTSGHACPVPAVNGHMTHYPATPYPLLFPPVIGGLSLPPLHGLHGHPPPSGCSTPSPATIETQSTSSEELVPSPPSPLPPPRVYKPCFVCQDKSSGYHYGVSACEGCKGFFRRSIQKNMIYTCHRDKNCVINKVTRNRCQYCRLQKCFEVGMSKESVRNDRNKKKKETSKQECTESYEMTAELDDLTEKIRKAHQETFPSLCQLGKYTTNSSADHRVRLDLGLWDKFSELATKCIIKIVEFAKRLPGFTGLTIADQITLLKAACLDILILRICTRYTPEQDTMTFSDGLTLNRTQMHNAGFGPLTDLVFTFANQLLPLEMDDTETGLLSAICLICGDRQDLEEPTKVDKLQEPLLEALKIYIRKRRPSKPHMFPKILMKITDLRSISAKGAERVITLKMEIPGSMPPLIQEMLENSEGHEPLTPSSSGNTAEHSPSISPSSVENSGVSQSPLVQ
Source text: (§1) A holoreceptor transactivation assay and a ligand binding assay which measure the antagonist/agonist like activity of the compounds of the invention, or their ability to bind to the several retinoid receptor subtypes, respectively, are described in published PCT Application No. WO WO93/11755 (particularly on pages 30–33 and 37–41) published on Jun. 24, 1993, the specification of which is also incorporated herein by reference. A description of the holoreceptor transactivation assay is also provided below.
(§2) CV1 cells (5,000 cells/well) were transfected with an RAR reporter plasmid MTV-TREp-LUC (50 ng) along with one of the RAR expression vectors (10 ng) in an automated 96-well format by the calcium phosphate procedure of Heyman et al. Cell 68, 397–406, (1992). For RXRα and RXRγ transactivation assays, an RXR-responsive reporter plasmid CRBPII-tk-LUC (50 ng) along with the appropriate RXR expression vectors (10 ng) was used substantially as described by Heyman et al. above, and Allegretto et al. J. Biol. Chem. 268, 26625–26633. For RXRβ transactivation assays, an RXR-responsive reporter plasmid CPRE-tk-LUC ([…]) along with RXRβ expression vector ([…]) was used as described in above. These reporters contain DRI elements from human CRBPII and certain DRI elements from promoter, respectively. […]

RARα = target: T2, RARα (Homo sapiens, UniProt P10276); test: Ligand binding assay, RARα
T2 sequence (P10276 1-462): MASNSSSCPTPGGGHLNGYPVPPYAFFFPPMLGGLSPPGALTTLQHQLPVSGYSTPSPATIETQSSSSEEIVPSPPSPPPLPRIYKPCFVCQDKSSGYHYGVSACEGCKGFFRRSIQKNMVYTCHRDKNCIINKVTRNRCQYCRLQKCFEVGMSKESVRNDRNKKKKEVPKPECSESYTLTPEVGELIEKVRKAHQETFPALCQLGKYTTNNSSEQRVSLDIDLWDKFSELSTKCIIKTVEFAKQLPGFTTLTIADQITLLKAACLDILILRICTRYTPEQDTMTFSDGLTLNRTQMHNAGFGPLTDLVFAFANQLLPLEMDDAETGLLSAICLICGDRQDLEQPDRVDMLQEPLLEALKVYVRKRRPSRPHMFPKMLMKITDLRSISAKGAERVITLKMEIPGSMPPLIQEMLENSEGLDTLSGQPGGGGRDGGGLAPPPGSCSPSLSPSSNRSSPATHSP
Source text: as §1, §2

RARγ = target: T3, RARγ (Homo sapiens, UniProt P13631); test: Ligand binding assay, RARγ; settings: read-out: Kd TATγ
T3 sequence (P13631 1-454): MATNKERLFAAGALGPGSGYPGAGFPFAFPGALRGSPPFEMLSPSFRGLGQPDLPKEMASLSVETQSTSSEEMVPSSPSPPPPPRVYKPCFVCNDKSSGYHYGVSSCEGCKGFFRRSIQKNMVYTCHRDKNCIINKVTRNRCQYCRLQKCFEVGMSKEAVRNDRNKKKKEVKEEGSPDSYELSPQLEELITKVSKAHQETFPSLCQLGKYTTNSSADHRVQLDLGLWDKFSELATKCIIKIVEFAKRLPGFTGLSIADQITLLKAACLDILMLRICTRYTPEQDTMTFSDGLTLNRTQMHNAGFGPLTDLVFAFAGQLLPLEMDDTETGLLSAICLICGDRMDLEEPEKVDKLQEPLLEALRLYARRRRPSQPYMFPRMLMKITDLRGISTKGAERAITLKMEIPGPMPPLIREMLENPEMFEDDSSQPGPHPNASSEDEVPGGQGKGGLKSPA
Source text: as §1, §2

[1] = test system: RARγ-VP-16 chimeric receptor; test: Retinoid inverse agonist assay: repression of basal luciferase activity of RARγ-VP-16 chimeric receptor in CV-1 cells; assay type: cell-based; settings: CV-1 cells cotransfected with RARγ-VP-16, ER-RXRα chimeric receptor and ERE-tk-Luc reporter; read-out: IC50, inhibition of basal luciferase activity
Source text: The activity of retinoid inverse agonists can be tested by the procedure of Klein et al. J. Biol. Chem. 271, 22692–22696 (1996) which is expressly incorporated herein by reference.
In this assay, retinoid inverse agonists are able to repress the basal activity of a RARγ-VP-16 chimeric receptor where the constituitively active domain of the herpes simplex virus (HSV) VP-16 is fused to the N-terminus of RARγ. CV-1 cells are cotransfected with RARγ-VP-16, an ER-RXRα chimeric receptor and an ERE-tk-Luc chimeric reporter gene to produce a basal level of luciferase activity, as shown by Nagpal et al. EMBO J. 12, 2349–2360 (1933) expressly incorporated herein by reference. Retinoid inverse agonists are able to inhibit the basal luciferase activity in these cells in a dose dependent manner and IC50s measured.

SMILES	Kd (RARβ) [nM]	Kd (RARα) [nM]	Kd (RARγ) [nM]	IC50 [1] [nM]
Cc1ccc(C2=CC(C)(C)Oc3cc4ccc(-c5ccc(C(=O)O)cc5)cc4cc32)s1 [Compound 12, 4-[2,2-Dimethyl-4-(5-methyl-thien-2-yl)-benzo[1,2-g]-chrom-3-en-7-yl]benzoic acid]	12	17	33	–
Cc1ccc(C2=CCC(C)(C)c3cc4cccc(-c5ccc(C(=O)O)cc5)c4cc32)cc1 [Compound 2, 4-[1(Tol-4-yl)-3,4-dihydro-4,4-dimethyl-anthracen-8-yl]-benzoic acid]	4	13	7	1
